Assay results as given in paper PMC3878488, “Biarsenical ligands bind to endogenous G-protein α-subunits and enable allosteric sensing of nucleotide binding” (BMC Biochemistry, 2013).

Assays:
Experiment in all cases: F2FlAsH fluorescence anisotropy, nucleotide titration
Format in all cases: binding
[1] = test system: T1, αolf + βγM (F2FlAsH-labeled); details: pH 7.8, 28°C, 2 mM MgCl2, 1 mM EDTA, 6 h; 15 nM F2FlAsH allosteric label
T1 construct: gene GNAL; wild-type alpha (Kerafast, purified by GST-Ric8 association), reconstituted with beta1 / StrepII- and CCKACC-tagged gamma2 from Sf9
From the text: F2FlAsH fluorescence anisotropy, nucleotide titration on αolf + βγM (F2FlAsH-labeled)

αi3βγM (F2FlAsH-labeled) = test system: T2, αi3βγM (F2FlAsH-labeled); details: pH 7.8, 28°C, 2 mM MgCl2, 1 mM EDTA, 2 h; 5 nM F2FlAsH allosteric label, ~40 nM nucleotide-depleted heterotrimer
T2 construct: gene GNAI3; wild-type alpha co-expressed in Sf9 with beta1 / StrepII- and CCKACC-tagged gamma2; nucleotide-depleted heterotrimer
From the text: F2FlAsH fluorescence anisotropy, nucleotide titration on αi3βγM (F2FlAsH-labeled)

[2] = test system: T3, α13 + βγM (F2FlAsH-labeled); details: pH 7.8, 28°C, 2 mM MgCl2, 1 mM EDTA, 14 h; 15 nM F2FlAsH allosteric label
T3 construct: gene GNA13; wild-type alpha (Kerafast, purified by GST-Ric8 association), reconstituted with beta1 / StrepII- and CCKACC-tagged gamma2 from Sf9
From the text: F2FlAsH fluorescence anisotropy, nucleotide titration on α13 + βγM (F2FlAsH-labeled)

αi2βγM (F2FlAsH-labeled) = test system: T4, αi2βγM (F2FlAsH-labeled); details: pH 7.8, 28°C, 2 mM MgCl2, 1 mM EDTA, 2 h; 5 nM F2FlAsH allosteric label, ~40 nM nucleotide-depleted heterotrimer
T4 construct: gene GNAI2; wild-type alpha co-expressed in Sf9 with beta1 / StrepII- and CCKACC-tagged gamma2; nucleotide-depleted heterotrimer
From the text: F2FlAsH fluorescence anisotropy, nucleotide titration on αi2βγM (F2FlAsH-labeled)

[3] = test system: T5, αslong + βγM (F2FlAsH-labeled); details: pH 7.8, 28°C, 2 mM MgCl2, 1 mM EDTA, 6 h; 15 nM F2FlAsH allosteric label
T5 construct: gene GNAS; wild-type alpha (Kerafast, purified by GST-Ric8 association), reconstituted with beta1 / StrepII- and CCKACC-tagged gamma2 from Sf9
From the text: F2FlAsH fluorescence anisotropy, nucleotide titration on αslong + βγM (F2FlAsH-labeled)

αi1βγM (F2FlAsH-labeled) = test system: T6, αi1βγM (F2FlAsH-labeled); details: pH 7.8, 28°C, 2 mM MgCl2, 1 mM EDTA, 2 h; 5 nM F2FlAsH allosteric label, ~40 nM nucleotide-depleted heterotrimer
T6 construct: gene GNAI1; wild-type alpha co-expressed in Sf9 with beta1 / StrepII- and CCKACC-tagged gamma2; nucleotide-depleted heterotrimer
From the text: F2FlAsH fluorescence anisotropy, nucleotide titration on αi1βγM (F2FlAsH-labeled)

[4] = test system: T7, αsshort + βγM (F2FlAsH-labeled); details: pH 7.8, 28°C, 2 mM MgCl2, 1 mM EDTA, 6 h; 15 nM F2FlAsH allosteric label
T7 construct: gene GNAS; wild-type alpha (Kerafast, purified by GST-Ric8 association), reconstituted with beta1 / StrepII- and CCKACC-tagged gamma2 from Sf9
From the text: F2FlAsH fluorescence anisotropy, nucleotide titration on αsshort + βγM (F2FlAsH-labeled)

[5] = test system: T8, αq + βγM (F2FlAsH-labeled); details: pH 7.8, 28°C, 2 mM MgCl2, 1 mM EDTA, 6 h; 15 nM F2FlAsH allosteric label
T8 construct: gene GNAQ; wild-type alpha (Kerafast, purified by GST-Ric8 association), reconstituted with beta1 / StrepII- and CCKACC-tagged gamma2 from Sf9
From the text: F2FlAsH fluorescence anisotropy, nucleotide titration on αq + βγM (F2FlAsH-labeled)

Q: For `Nc1nc2c(ncn2[C@@H]2O[C@H](COP(=O)(O)OP(=O)(O)O)[C@@H](O)[C@H]2O)c(=O)[nH]1` [GDP], which GDP [1] is on record?
A: Its GDP is 5.00 ± 0.03 -log M.

Q: And the GDP (αi3βγM (F2FlAsH-labeled))?
A: The GDP was 8.08 ± 0.10 -log M.

Q: What about the GDP [2] of the same compound?
A: The GDP was 4.98 ± 0.23 -log M.

Q: What about the GDP (αi2βγM (F2FlAsH-labeled)) of the same compound?
A: Its GDP is 8.17 ± 0.13 -log M.

Q: What about the GDP [3] of the same compound?
A: The GDP was 4.72 ± 0.18 -log M.

Q: And the GDP (αi1βγM (F2FlAsH-labeled))?
A: The GDP was 8.19 ± 0.16 -log M.

Q: And the GDP [4]?
A: The GDP was 4.85 ± 0.05 -log M.

Q: What about the GDP [5] of the same compound?
A: The GDP was 5.87 ± 0.06 -log M.

Q: `Nc1nc2c(ncn2[C@@H]2O[C@H](COP(=O)(O)O)[C@@H](O)[C@H]2O)c(=O)[nH]1` [GMP] was tested. Which GMP [1] did it give?
A: Its GMP is < 3 -log M.

Q: What about the GMP (αi3βγM (F2FlAsH-labeled)) of the same compound?
A: The GMP was 5.29 ± 0.13 -log M.

Q: What about the GMP (αi2βγM (F2FlAsH-labeled)) of the same compound?
A: The GMP was 4.45 ± 0.07 -log M.

Q: And the GMP (αi1βγM (F2FlAsH-labeled))?
A: The GMP was 5.89 ± 0.12 -log M.

Q: What about the GMP [4] of the same compound?
A: Its GMP is < 3 -log M.

Q: What about the GMP [5] of the same compound?
A: Its GMP is < 3 -log M.

Q: Which GTPγS [1] does the source give for `Nc1nc2c(ncn2[C@@H]2O[C@H](COP(=O)(O)OP(=O)(O)OP(O)(O)=S)[C@@H](O)[C@H]2O)c(=O)[nH]1` [GTPγS] here?
A: Its GTPγS is 6.43 ± 0.04 -log M.

Q: And the GTPγS (αi3βγM (F2FlAsH-labeled))?
A: The GTPγS was 7.87 ± 0.06 -log M.

Q: What about the GTPγS [2] of the same compound?
A: Its GTPγS is 5.65 ± 0.13 -log M.

Q: And the GTPγS (αi2βγM (F2FlAsH-labeled))?
A: The GTPγS was 8.02 ± 0.09 -log M.

Q: What about the GTPγS [3] of the same compound?
A: Its GTPγS is 7.47 ± 0.09 -log M.

Q: What about the GTPγS [4] of the same compound?
A: Its GTPγS is 7.06 ± 0.04 -log M.

Q: And the GTPγS [5]?
A: The GTPγS was 6.27 ± 0.05 -log M.

Q: Which GppNHp [1] does the source give for `Nc1nc2c(ncn2[C@@H]2O[C@H](COP(=O)(O)OP(=O)(O)NP(=O)(O)O)[C@@H](O)[C@H]2O)c(=O)[nH]1` [GppNHp] here?
A: Its GppNHp is 5.84 ± 0.05 -log M.

Q: What about the GppNHp (αi3βγM (F2FlAsH-labeled)) of the same compound?
A: The GppNHp was 7.93 ± 0.07 -log M.

Q: And the GppNHp [2]?
A: Its GppNHp is 5.36 ± 0.14 -log M.

Q: What about the GppNHp (αi2βγM (F2FlAsH-labeled)) of the same compound?
A: Its GppNHp is 7.84 ± 0.14 -log M.

Q: And the GppNHp [3]?
A: The GppNHp was 6.56 ± 0.07 -log M.

Q: And the GppNHp (αi1βγM (F2FlAsH-labeled))?
A: The GppNHp was 8.08 ± 0.04 -log M.

Q: What about the GppNHp [4] of the same compound?
A: The GppNHp was 6.42 ± 0.04 -log M.

Q: What about the GppNHp [5] of the same compound?
A: Its GppNHp is 5.96 ± 0.07 -log M.
